Tests used:
[1] = system: NCI-H3122 (EML4-ALK, V1) cells; assay: Growth inhibition IC50 in lung cancer H3122 cells (Cell Titer Blue / Cell Titer Glo); details: Homo sapiens, NCI-H3122, H3122 cells, CTB (Cell Titer Blue)
[2] = biological target: T1, ALK protein in H3122 (EML4-ALK) cells (Homo sapiens, UniProt Q9UM73); assay: Western blot of ALK protein level (degradation, DC50), ALK phosphorylation and downstream signaling in H3122 cells; assay type: cell-based; details: ALK protein degradation in H3122 cells
T1 construct: EML4 (Echinoderm microtubule-associated protein-like 4, Q9HC35) fusion partner, variant 1; host or cells: NCI-H3122 lung adenocarcinoma cells; the other entry of the earlier key: EML4 (Q9HC35, Echinoderm microtubule-associated protein-like 4)

[3] = biological target: T2, ALK protein in SR (NPM-ALK) cells (Homo sapiens, UniProt Q9UM73); assay: Western blot of ALK protein level (degradation, DC50), ALK phosphorylation and downstream signaling in SR cells; assay type: cell-based; details: for DC50: ALK protein degradation in SR cells
T2 construct: NPM (nucleophosmin, NPM1, P06748) fusion partner; host or cells: SR (ALCL) cells; the other entry of the earlier key: NPM1 (P06748, Nucleophosmin)

SR (NPM-ALK) cells = assay: Growth inhibition IC50 in ALCL SR cells (CCK8/WST, 72 hours); assay type: cell-based; details: SR cells, WST
[4] = 72 h, Brigatinib-based PROTAD molecules (Table 3)

T1 sequence (Q9UM73 with tags, fused parts or gaps): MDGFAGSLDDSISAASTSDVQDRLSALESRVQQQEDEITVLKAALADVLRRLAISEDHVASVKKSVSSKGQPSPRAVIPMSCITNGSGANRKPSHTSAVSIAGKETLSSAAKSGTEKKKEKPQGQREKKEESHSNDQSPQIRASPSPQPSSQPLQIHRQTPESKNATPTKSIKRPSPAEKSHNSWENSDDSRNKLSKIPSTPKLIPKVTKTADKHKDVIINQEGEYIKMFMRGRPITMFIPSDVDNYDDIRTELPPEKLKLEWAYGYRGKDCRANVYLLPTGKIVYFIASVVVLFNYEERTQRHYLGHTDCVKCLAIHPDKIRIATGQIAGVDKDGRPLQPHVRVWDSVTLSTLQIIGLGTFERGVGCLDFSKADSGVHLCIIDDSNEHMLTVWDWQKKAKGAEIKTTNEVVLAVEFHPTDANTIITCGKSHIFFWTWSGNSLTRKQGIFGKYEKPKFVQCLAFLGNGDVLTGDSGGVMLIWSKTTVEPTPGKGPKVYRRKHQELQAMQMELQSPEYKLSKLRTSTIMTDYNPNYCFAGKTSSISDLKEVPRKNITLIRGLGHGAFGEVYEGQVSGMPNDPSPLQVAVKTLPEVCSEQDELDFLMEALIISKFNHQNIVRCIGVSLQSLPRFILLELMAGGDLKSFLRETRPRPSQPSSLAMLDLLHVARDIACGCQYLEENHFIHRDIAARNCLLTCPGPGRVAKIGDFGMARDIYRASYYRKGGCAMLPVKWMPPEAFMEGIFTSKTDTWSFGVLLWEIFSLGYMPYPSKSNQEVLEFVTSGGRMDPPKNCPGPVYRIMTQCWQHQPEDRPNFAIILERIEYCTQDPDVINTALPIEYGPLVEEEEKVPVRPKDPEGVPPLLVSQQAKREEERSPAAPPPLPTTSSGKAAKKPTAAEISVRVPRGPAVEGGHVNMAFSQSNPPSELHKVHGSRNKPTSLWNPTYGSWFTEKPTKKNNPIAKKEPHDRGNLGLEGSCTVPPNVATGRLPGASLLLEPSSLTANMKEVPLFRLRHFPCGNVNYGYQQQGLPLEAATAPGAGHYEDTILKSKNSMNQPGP
T2 sequence (Q9UM73 with tags, fused parts or gaps): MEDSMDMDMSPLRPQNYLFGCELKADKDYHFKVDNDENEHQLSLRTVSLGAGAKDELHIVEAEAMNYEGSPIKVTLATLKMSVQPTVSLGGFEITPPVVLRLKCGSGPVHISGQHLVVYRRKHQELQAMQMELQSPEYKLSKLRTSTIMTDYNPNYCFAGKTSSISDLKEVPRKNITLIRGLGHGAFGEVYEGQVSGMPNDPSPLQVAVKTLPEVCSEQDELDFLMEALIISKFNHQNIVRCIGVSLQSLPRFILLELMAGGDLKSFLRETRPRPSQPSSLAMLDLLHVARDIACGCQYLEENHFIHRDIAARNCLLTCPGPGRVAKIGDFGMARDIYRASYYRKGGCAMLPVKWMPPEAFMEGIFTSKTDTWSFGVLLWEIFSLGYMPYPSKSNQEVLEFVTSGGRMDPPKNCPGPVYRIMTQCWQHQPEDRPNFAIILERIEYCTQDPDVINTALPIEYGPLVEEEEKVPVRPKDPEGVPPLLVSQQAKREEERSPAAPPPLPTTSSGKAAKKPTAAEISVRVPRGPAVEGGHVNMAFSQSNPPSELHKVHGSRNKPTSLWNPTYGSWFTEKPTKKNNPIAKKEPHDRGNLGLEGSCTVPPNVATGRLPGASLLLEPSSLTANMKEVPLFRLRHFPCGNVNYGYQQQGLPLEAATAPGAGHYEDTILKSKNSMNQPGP

Structure (SMILES) | IC50 [1] | DC50 [2] | DC50 [3] | concentration at which ALK proteins were degraded ([3]; SR cells, western blot) | IC50 (SR (NPM-ALK) cells; [4]) | IC50 (SR (NPM-ALK) cells; Alectinib based ALK PROTAD compounds (Table 4))
Cc1cc(Nc2ncc(Cl)c(Nc3ccccc3S(=O)(=O)C(C)C)n2)c(OC(C)C)cc1C1CCN(C(=O)CCOCCOCCOCCC(=O)N[C@H](C(=O)N2C[C@H](O)C[C@H]2C(=O)NCc2ccc(-c3scnc3C)cc2)C(C)(C)C)CC1 [SIAIS151039, (2S,4R)-1-((S)-2-(tert-butyl)-16-(4-(4-((5-chloro-4-((2-(isopropylsulfonyl)phenyl)amino)pyrimidin-2-yl)amino)-5-isopropoxy-2-methylphenyl)piperidin-1-yl)-4,16-dioxo-7,10,13-trioxa-3-azahexadecanoyl)-4-hydroxy-N-(4-(4-methylthiazol-5-yl)benzyl)pyrrolidine-2-carboxamide] | 441 nM | – | – | – | – | –
COc1cc(N2CCC(NC(=O)CCCCCC(=O)N[C@H](C(=O)N3C[C@H](O)C[C@H]3C(=O)NCc3ccc(-c4scnc4C)cc3)C(C)(C)C)CC2)ccc1Nc1ncc(Cl)c(Nc2ccccc2P(C)(C)=O)n1 [SIAIS164146, N1-(1-(4-((5-chloro-4-((2-(dimethylphosphoryl)phenyl)amino)pyrimidin-2-yl)amino)-3-methoxyphenyl)piperidin-4-yl)-N7-((S)-1-((2S,4R)-4-hydroxy-2-((4-(4-methylthiazol-5-yl)benzyl)carbamoyl)pyrrolidin-1-yl)-3,3-dimethyl-1-oxobutan-2-yl)heptanediamide] | – | 0.1 to 10 nM | 1 to 10 nM | – | 3.6 ± 2.1 nM | –
COc1cc(N2CCC(N3CCN(C(=O)CCOCCOCCOCCNc4cccc5c4C(=O)N(C4CCC(=O)NC4=O)C5=O)CC3)CC2)ccc1Nc1ncc(Cl)c(Nc2ccccc2P(C)(C)=O)n1 (centres unmarked) [SIAIS164009, 4-((2-(2-(2-(3-(4-(1-(4-((5-chloro-4-((2-(dimethylphosphoryl)phenyl)amino)pyrimidin-2-yl)amino)-3-methoxyphenyl)piperidin-4-yl)piperazin-1-yl)-3-oxopropoxy)ethoxy)ethoxy)ethyl)amino)-2-(2,6-dioxopiperidin-3-yl)isoindoline-1,3-dione] | – | 1 to 10 nM | 1 to 10 nM | 1 nM | 5.3 ± 1.7 nM | –
COc1cc(N2CCC(N3CCN(C(=O)CCC(=O)NCCNc4cccc5c4C(=O)N(C4CCC(=O)NC4=O)C5=O)CC3)CC2)ccc1Nc1ncc(Cl)c(Nc2ccccc2P(C)(C)=O)n1 (centres unmarked) [SIAIS164152, 4-(4-(1-(4-((5-chloro-4-((2-(dimethylphosphoryl)phenyl)amino)pyrimidin-2-yl)amino)-3-methoxyphenyl)piperidin-4-yl)piperazin-1-yl)-N-(2-((2-(2,6-dioxopiperidin-3-yl)-1,3-dioxoisoindolin-4-yl)amino)ethyl)-4-oxobutanamide] | – | 10 to 50 nM | 0.5 to 10 nM | – | 7.9 ± 3.5 nM | –
COc1cc(N2CCN(C(=O)CCCCCCNc3cccc4c3C(=O)N(C3CCC(=O)NC3=O)C4=O)CC2)ccc1Nc1ncc(Cl)c(Nc2ccccc2P(C)(C)=O)n1 (centres unmarked) [SIAIS1197077, 4-((7-(4-(4-((5-chloro-4-((2-(dimethylphosphoryl)phenyl)amino)pyrimidin-2-yl)amino)-3-methoxyphenyl)piperazin-1-yl)-7-oxoheptyl)amino)-2-(2,6-dioxopiperidin-3-yl)isoindoline-1,3-dione] | – | 50 to 500 nM | 0.1 to 0.5 nM | – | 7.9 ± 4.9 nM | –

More lines, main results first:

IC50 [1] | DC50 [2] | DC50 [3] | concentration at which ALK proteins were degraded ([3]; SR cells, western blot) | Structure (SMILES) | IC50 (SR (NPM-ALK) cells; [4]) | IC50 (SR (NPM-ALK) cells; Alectinib based ALK PROTAD compounds (Table 4))
14 nM | – | – | – | Cc1cc(Nc2ncc(Cl)c(Nc3ccccc3S(=O)(=O)C(C)C)n2)c(OC(C)C)cc1C1CCN(C(=O)CCNc2cccc3c2C(=O)N(C2CCC(=O)NC2=O)C3=O)CC1 (centres unmarked) [SIAIS151034, 4-((3-(4-(4-((5-chloro-4-((2-(isopropylsulfonyl)phenyl)amino)pyrimidin-2-yl)amino)-5-isopropoxy-2-methylphenyl)piperidin-1-yl)-3-oxopropyl)amino)-2-(2,6-dioxopiperidin-3-yl)isoindoline-1,3-dione] | – | –
31 nM | – | – | – | Cc1cc(Nc2ncc(Cl)c(Nc3ccccc3S(=O)(=O)C(C)C)n2)c(OC(C)C)cc1C1CCN(C(=O)CCCCNc2cccc3c2C(=O)N(C2CCC(=O)NC2=O)C3=O)CC1 (centres unmarked) [SIAIS151036, 4-((5-(4-(4-((5-chloro-4-((2-(isopropylsulfonyl)phenyl)amino)pyrimidin-2-yl)amino)-5-isopropoxy-2-methylphenyl)piperidin-1-yl)-5-oxopentyl)amino)-2-(2,6-dioxopiperidin-3-yl)isoindoline-1,3-dione] | – | –
153 nM | – | – | – | Cc1cc(Nc2ncc(Cl)c(Nc3ccccc3S(=O)(=O)C(C)C)n2)c(OC(C)C)cc1C1CCN(C(=O)COCCOCC(=O)N[C@H](C(=O)N2C[C@H](O)C[C@H]2C(=O)NCc2ccc(-c3scnc3C)cc2)C(C)(C)C)CC1 [SIAIS151042, (2S,4R)-1-((S)-2-(2-(2-(2-(4-(4-((5-chloro-4-((2-(isopropylsulfonyl)phenyl)amino)pyrimidin-2-yl)amino)-5-isopropoxy-2-methylphenyl)piperidin-1-yl)-2-oxoethoxy)ethoxy)acetamido)-3,3-dimethylbutanoyl)-4-hydroxy-N-(4-(4-methylthiazol-5-yl)benzyl)pyrrolidine-2-carboxamide] | – | –
– | 1 to 10 nM | 1 to 50 nM | – | CCc1cc2c(cc1N1CCN(C(=O)CNc3cccc4c3C(=O)N(C3CCC(=O)NC3=O)C4=O)CC1)C(C)(C)c1[nH]c3cc(C#N)ccc3c1C2=O (centres unmarked) [SIAIS164028, 8-(4-((2-(2,6-dioxopiperidin-3-yl)-1,3-dioxoisoindolin-4-yl)glycyl)piperazin-1-yl)-9-ethyl-6,6-dimethyl-11-oxo-6,11-dihydro-5H-benzo[b]carbazole-3-carbonitrile] | – | 19.7 nM
– | 10 to 500 nM | 10 to 50 nM | – | COc1cc(N2CCC(N3CCN(C(=O)COCCOCC(=O)N[C@H](C(=O)N4C[C@H](O)C[C@H]4C(=O)NCc4ccc(-c5scnc5C)cc4)C(C)(C)C)CC3)CC2)ccc1Nc1ncc(Cl)c(Nc2ccccc2P(C)(C)=O)n1 [SIAIS164041, (2S,4R)-1-((S)-2-(2-(2-(2-(4-(1-(4-((5-chloro-4-((2-(dimethylphosphoryl)phenyl)amino)pyrimidin-2-yl)amino)-3-methoxyphenyl)piperidin-4-yl)piperazin-1-yl)-2-oxoethoxy)ethoxy)acetamido)-3,3-dimethylbutanoyl)-4-hydroxy-N-(4-(4-methylthiazol-5-yl)benzyl)pyrrolidine-2-carboxamide] | 42.7 ± 29.4 nM | –
– | 100 to 500 nM | 100 to 500 nM | – | COc1cc(N2CCC(N3CCN(C(=O)CCOCCOCCOCCC(=O)N[C@H](C(=O)N4C[C@H](O)C[C@H]4C(=O)NCc4ccc(-c5scnc5C)cc4)C(C)(C)C)CC3)CC2)ccc1Nc1ncc(Cl)c(Nc2ccccc2P(C)(C)=O)n1 [SIAIS164033, (2S,4R)-1-((S)-2-(tert-butyl)-16-(4-(1-(4-((5-chloro-4-((2-(dimethylphosphoryl)phenyl)amino)pyrimidin-2-yl)amino)-3-methoxyphenyl)piperidin-4-yl)piperazin-1-yl)-4,16-dioxo-7,10,13-trioxa-3-azahexadecanoyl)-4-hydroxy-N-(4-(4-methylthiazol-5-yl)benzyl)pyrrolidine-2-carboxamide] | 50.1 ± 34.9 nM | –
